Literature values, collected in patent publication US20100273711A1, “INDIVIDUALIZED CANCER TREATMENTS” (priority 2007, published 2010).

Key:
Molt-4 = conditions: pemetrexed, cell line Molt-4; cited from earlier work
HL-60 = conditions: pemetrexed, cell line HL-60; cited from earlier work
MCF7 = conditions: pemetrexed, cell line MCF7; cited from earlier work
HCC-2998 = conditions: pemetrexed, cell line HCC-2998; cited from earlier work
HCT-116 = conditions: pemetrexed, cell line HCT-116; cited from earlier work
NCI-H460 = conditions: pemetrexed, cell line NCI-H460; cited from earlier work
MDA-MB-231 = conditions: pemetrexed, cell line MDA-MB-231; cited from earlier work
M14 = conditions: pemetrexed, cell line M14; cited from earlier work
SK-MEL-28 = conditions: pemetrexed, cell line SK-MEL-28; cited from earlier work
257p = conditions: pemetrexed, cell line 257P; cited from earlier work
A375 = conditions: pemetrexed, cell line A375; cited from earlier work
C8161 = conditions: pemetrexed, cell line C8161; cited from earlier work
SNU182 = conditions: pemetrexed, cell line SNU182; cited from earlier work
SNU423 = conditions: pemetrexed, cell line SNU423; cited from earlier work
R103 = conditions: pemetrexed, cell line R103; cited from earlier work

For `Nc1nc2[nH]cc(CCc3ccc(C(=O)N[C@@H](CCC(=O)O)C(=O)O)cc3)c2c(=O)[nH]1` [Pemetrexed, pemetrexed], the “Resistant (Res) or Sensitive (Sen)” value (Molt-4) is listed as “Res”, the “Resistant (Res) or Sensitive (Sen)” value (HL-60) is listed as “Res” and the “Resistant (Res) or Sensitive (Sen)” value (MCF7) is listed as “Res”. The “Resistant (Res) or Sensitive (Sen)” value (HCC-2998) was “Res”, the “Resistant (Res) or Sensitive (Sen)” value (HCT-116) was “Res” and the “Resistant (Res) or Sensitive (Sen)” value (NCI-H460) was “Res”. For the same compound, the “Resistant (Res) or Sensitive (Sen)” value (MDA-MB-231) was “Sen”, the “Resistant (Res) or Sensitive (Sen)” value (M14) was “Sen” and the “Resistant (Res) or Sensitive (Sen)” value (SK-MEL-28) was “Sen”. The “Resistant (Res) or Sensitive (Sen)” value (257p) was “Res”, the “Resistant (Res) or Sensitive (Sen)” value (A375) was “Res” and the “Resistant (Res) or Sensitive (Sen)” value (C8161) was “Res”. The “Resistant (Res) or Sensitive (Sen)” value (SNU182) was “Res”, the “Resistant (Res) or Sensitive (Sen)” value (SNU423) was “Res” and the “Resistant (Res) or Sensitive (Sen)” value (R103) was “Sen”.
